# Measurements from patent US9340522B2, “Pyrazolone-derivatives and their use as PDE-4 inhibitors” (TAKEDA GMBH, priority 2008, dated 2016).
# Read-outs that look alike come from different tables or passages of the source.
# Legend:
# [1] = test system: LPS-induced pulmonary inflammation model in rats; test: LPS-induced pulmonary inflammation model in rats (Method A); assay type: in vivo; conditions: Rattus norvegicus, inhaled or nasal, dosage of 1 mg/kg, intratracheal dry powder insufflation 2 h prior LPS challenge, BALF 16 h after LPS, in comparison to the placebo group
# Method: Exposure of rats to aerosolized lipopolysaccharide (LPS) causes a pulmonary mainly neutrophilic inflammation, which can be assessed by bronchoalveolar lavage (BAL). LPS-induced pulmonary inflammation models are robust and are commonly used for the evaluation of test compounds modulating the immediate immune response. Phosphodiesterase-4 inhibitors are administered by intratracheal dry powder insufflation 2 h prior nose-only LPS challenge in rats. The antiinflammatory activity of the phosphodiesterase inhibitors is assessed based on pulmonary total leukocyte and neutrophil counts in the bronchoalveolar lavage fluid 16 h after LPS exposure.
# Male Sprague Dawley rats weighing 250-300 g are used. Rats are delivered 1 weak prior to the experiments and have free access to water and food.
# The test compound in crystalline and micronized state is blended with lactose for inhalation ad 10 mg/kg (Respitose® SV003, DMV International, Netherlands). Respitose® and test compound are transferred to 12 ml tubes and are blended for 10 min. Dilution series are prepared from the this stock blend.
# A device consisting of an Abbocath®-T catheter (18G×51 mm), a one-way stop-cock and a 5 ml syringe is used for test compound insufflation. Weighed test compound blends are directly filled in the stop-cocks. Intubation of the rats is guided by sight and is done under a short time halothane anesthesia.
# The administered dose of the blended material is 10 mg/kg. The expected material loss in the device is 25%, therefore the weighted dose used is 12.5 mg/kg. One day before the experiment the rat body weights are documented and the mean body weight is used to calculate the administered blend dose per rat. LPS challenged and unchallenged control animals received drug-free Respitose® as placebo. Test compound blends and Respitose are administered 2 h prior LPS challenge.
# Conscious and restrained animals are connected to a nose-only exposure system (CR equipment SA, Tannay, Switzerland) and are exposed to the LPS aerosol for 30 min. The LPS-containing aerosol is generated using a compressed air driven medication nebulizer device (OCTURNO Medizintechnik GmbH, Germany). The LPS solution (E. coli, Serotype 055B5, Art.#L2880, Lot#114K4103, Sigma-Aldrich; 0.15 mg/ml, diluted in 0.1% hydroxylamine/PBS) is continuously delivered by a syringe pump (20 ml/h) to the nebulizer device. The aerosol is dispersed and transported to the exposure tower by admixture of compressed air. All rats except negative controls are exposed to LPS.
# Sixteen hours after LPS challenge, animals are sacrificed with Trapanal (thiopental, […], 2 ml/rat, i.p.), the final body weights are determined and BALs are performed. For the BAL the trachea is exposed and cannulated, followed by gently lavaging the lungs three times in situ with 4 ml PBS buffer.
# Determination of total leukocyte and neutrophil counts in BALF is performed with an automated leukocyte differentiation system (XT-20001V, Sysmex, Norderstedt, Germany).
# Suppression of LPS-induced total cell and neutrophil influx into the lungs is calculated in % using the means of the cell counts of each treatment group in relation to the control groups:
# Statistical analysis is performed on the primary cell count data using one-way ANOVA and Dunnett's multiple comparison post test vs. positive control. The Grubbs test is used to detect outliers.
# [2] = Neutrophil, read-out: reduction of neutrophils
# [3] = read-out: reduction of the total cell count
structure (smiles),measurement,setting,value
"COc1ccc(C2=NN(C3CCN(C(=O)c4ccccc4OCC(N)=O)CC3)C(=O)C2(C)C)cc1OC [Compound 97, 2-[2-({4-[3-(3,4-Dimethoxyphenyl)-4,4-dimethyl-5-oxo-4,5-dihydro-1H-pyrazol-1-yl]piperidin-1-yl}carbonyl)phenoxy]acetamide]",inhibition in vivo at 1 mg/kg,[1]; [2],15 to 53%
same,inhibition in vivo at 1 mg/kg,[1]; [3],22 to 60%
"COC(=O)c1cccc(S(=O)(=O)N2CCC(N3N=C(c4ccc(OC)c(OC)c4)C(C)(C)C3=O)CC2)c1 [Compound 26, Methyl 3-({4-[3-(3,4-dimethoxyphenyl)-4,4-dimethyl-5-oxo-4,5-dihydro-1H-pyrazol-1-yl]piperidin-1-yl}sulfonyl)benzoate]",melting point,,214 °C
"COc1ccc(C2=NN(C3CCN(C(=O)c4cccc5ccccc45)CC3)C(=O)C2(C)C)cc1OC [Compound 68, 5-(3,4-Dimethoxyphenyl)-4,4-dimethyl-2-[1-(naphthalen-1-ylcarbonyl)piperidin-4-yl]-2,4-dihydro-3H-pyrazol-3-one]",inhibition in vivo at 1 mg/kg,[1]; [2],15 to 53%
same,inhibition in vivo at 1 mg/kg,[1]; [3],22 to 60%
"COc1ccc(C2=NN(C3CCN(C(=O)c4cc5ccccc5[nH]4)CC3)C(=O)C2(C)C)cc1OC [Compound 61, 5-(3,4-Dimethoxyphenyl)-2-[1-(1H-indol-2-ylcarbonyl)piperidin-4-yl]-4,4-dimethyl-2,4-dihydro-3H-pyrazol-3-one]",melting point,,265 °C
"COc1ccc(C2=NN(C3CCN(S(=O)(=O)c4ccccc4F)CC3)C(=O)C2(C)C)cc1OC [Compound 14, 5-(3,4-Dimethoxyphenyl)-2-{1-[(2-fluorophenyl)sulfonyl]piperidin-4-yl}-4,4-dimethyl-2,4-dihydro-3H-pyrazol-3-one]",inhibition in vivo at 1 mg/kg,[1]; [2],15 to 53%
same,inhibition in vivo at 1 mg/kg,[1]; [3],22 to 60%
"COc1cc(C2=NN(C3CCN(S(=O)(=O)c4cccc(C)c4)CC3)C(=O)C2(C)C)cc2c1OC(C)(C)C2 [Compound 32, 5-(7-Methoxy-2,2-dimethyl-2,3-dihydro-1-benzofuran-5-yl)-4,4-dimethyl-2-{1-[(3-methylphenyl)sulfonyl]piperidin-4-yl}-2,4-dihydro-3H-pyrazol-3-one]",melting point,,183 °C
"COc1ccc(C2=NN(C3CCN(S(=O)(=O)c4cccc(C(=O)O)c4)CC3)C(=O)C2(C)C)cc1OC [Compound 25, 3-({4-[3-(3,4-Dimethoxyphenyl)-4,4-dimethyl-5-oxo-4,5-dihydro-1H-pyrazol-1-yl]piperidin-1-yl}sulfonyl)benzoic acid]",melting point,,244 °C
"COc1ccc(C2=NN(C3CCN(C(=O)c4cc(O)ccc4C)CC3)C(=O)C2(C)C)cc1OC [Compound 85, 5-(3,4-Dimethoxyphenyl)-2-{1-[(5-hydroxy-2-methylphenyl)carbonyl]piperidin-4-yl}-4,4-dimethyl-2,4-dihydro-3H-pyrazol-3-one]",inhibition in vivo at 1 mg/kg,[1]; [2],15 to 53%
same,inhibition in vivo at 1 mg/kg,[1]; [3],22 to 60%
same,melting point,,214 to 215 °C
"COc1ccc(C2=NN(C3CCN(C(=O)c4ccccc4OC4CCCC4)CC3)C(=O)C2(C)C)cc1OC [Compound 96, 2-(1-{[2-(Cyclopentyloxy)phenyl]carbonyl}piperidin-4-yl)-5-(3,4-dimethoxyphenyl)-4,4-dimethyl-2,4-dihydro-3H-pyrazol-3-one]",inhibition in vivo at 1 mg/kg,[1]; [2],15 to 53%
same,inhibition in vivo at 1 mg/kg,[1]; [3],22 to 60%
same,melting point,,176 °C
"COc1ccc(C2=NN(C3CCN(C(=O)c4ccccc4Br)CC3)C(=O)C2(C)C)cc1OC [Compound 72, 2-{1-[(2-Bromophenyl)carbonyl]piperidin-4-yl}-5-(3,4-dimethoxyphenyl)-4,4-dimethyl-2,4-dihydro-3H-pyrazol-3-one]",inhibition in vivo at 1 mg/kg,[1]; [2],15 to 53%
same,inhibition in vivo at 1 mg/kg,[1]; [3],22 to 60%
"CCOc1cccc(C(=O)N2CCC(N3N=C(c4ccc(OC)c(OC)c4)C(C)(C)C3=O)CC2)c1 [Compound 70, 5-(3,4-Dimethoxyphenyl)-2-{1-[(3-ethoxyphenyl)carbonyl]piperidin-4-yl}-4,4-dimethyl-2,4-dihydro-3H-pyrazol-3-one]",inhibition in vivo at 1 mg/kg,[1]; [2],15 to 53%
same,inhibition in vivo at 1 mg/kg,[1]; [3],22 to 60%
same,melting point,,154 to 156 °C
"COC(=O)c1ccccc1S(=O)(=O)N1CCC(N2N=C(c3ccc(OC)c(OC)c3)C(C)(C)C2=O)CC1 [Compound 2, Methyl 2-({4-[3-(3,4-dimethoxyphenyl)-4,4-dimethyl-5-oxo-4,5-dihydro-1H-pyrazol-1-yl]piperidin-1-yl}sulfonyl)benzoate]",inhibition in vivo at 1 mg/kg,[1]; [2],15 to 53%
same,inhibition in vivo at 1 mg/kg,[1]; [3],22 to 60%
"COc1ccc(C2=NN(C3CCN(C(=O)c4ccccc4O)CC3)C(=O)C2(C)C)cc1OC [Compound 94, 5-(3,4-Dimethoxyphenyl)-2-{1-[(2-hydroxyphenyl)carbonyl]piperidin-4-yl}-4,4-dimethyl-2,4-dihydro-3H-pyrazol-3-one]",inhibition in vivo at 1 mg/kg,[1]; [2],15 to 53%
same,inhibition in vivo at 1 mg/kg,[1]; [3],22 to 60%
same,melting point,,212 to 213 °C
"COc1ccc(C2=NN(C3CCN(S(=O)(=O)c4cccc(C)c4)CC3)C(=O)C2(C)C)cc1OC [Compound 11, 5-(3,4-Dimethoxyphenyl)-4,4-dimethyl-2-{1-[(3-methylphenyl)sulfonyl]piperidin-4-yl}-2,4-dihydro-3H-pyrazol-3-one]",inhibition in vivo at 1 mg/kg,[1]; [2],15 to 53%
same,inhibition in vivo at 1 mg/kg,[1]; [3],22 to 60%
"COc1ccc(C2=NN(C3CCN(C(=O)c4cc(O)ccc4F)CC3)C(=O)C2(C)C)cc1OC [Compound 90, 5-(3,4-Dimethoxyphenyl)-2-{1-[(2-fluoro-5-hydroxyphenyl)carbonyl]piperidin-4-yl}-4,4-dimethyl-2,4-dihydro-3H-pyrazol-3-one]",inhibition in vivo at 1 mg/kg,[1]; [2],15 to 53%
same,inhibition in vivo at 1 mg/kg,[1]; [3],22 to 60%
"COc1cccc(C(=O)N2CCC(N3N=C(c4ccc(OC)c(OC)c4)C(C)(C)C3=O)CC2)c1 [Compound 65, 5-(3,4-Dimethoxyphenyl)-2-{1-[(3-methoxyphenyl)carbonyl]piperidin-4-yl}-4,4-dimethyl-2,4-dihydro-3H-pyrazol-3-one]",inhibition in vivo at 1 mg/kg,[1]; [2],15 to 53%
same,inhibition in vivo at 1 mg/kg,[1]; [3],22 to 60%
"COc1ccc(C2=NN(C3CCN(C(=O)c4cccc(Cl)c4)CC3)C(=O)C2(C)C)cc1OC [Compound 69, 2-{1-[(3-Chlorophenyl)carbonyl]piperidin-4-yl}-5-(3,4-dimethoxyphenyl)-4,4-dimethyl-2,4-dihydro-3H-pyrazol-3-one]",inhibition in vivo at 1 mg/kg,[1]; [2],15 to 53%
same,inhibition in vivo at 1 mg/kg,[1]; [3],22 to 60%
"COc1ccc(C2=NN(C3CCN(S(=O)(=O)c4ccccc4C(F)(F)F)CC3)C(=O)C2(C)C)cc1OC [Compound 18, 5-(3,4-Dimethoxyphenyl)-4,4-dimethyl-2-(1-{[2-(trifluoromethyl)phenyl]sulfonyl}piperidin-4-yl)-2,4-dihydro-3H-pyrazol-3-one]",inhibition in vivo at 1 mg/kg,[1]; [2],15 to 53%
same,inhibition in vivo at 1 mg/kg,[1]; [3],22 to 60%
"COc1ccc(C2=NN(C3CCN(C(=O)c4cc(OCc5ccccc5)ccc4C)CC3)C(=O)C2(C)C)cc1OC [Compound 84, 2-(1-{[5-(Benzyloxy)-2-methylphenyl]carbonyl}piperidin-4-yl)-5-(3,4-dimethoxyphenyl)-4,4-dimethyl-2,4-dihydro-3H-pyrazol-3-one]",inhibition in vivo at 1 mg/kg,[1]; [2],15 to 53%
same,inhibition in vivo at 1 mg/kg,[1]; [3],22 to 60%
"COc1ccc(C2=NN(C3CCN(S(=O)(=O)c4c(C(C)C)cc(C(C)C)cc4C(C)C)CC3)C(=O)C2(C)C)cc1OC [Compound 9, 5-(3,4-Dimethoxyphenyl)-4,4-dimethyl-2-(1-{[2,4,6-tri(propan-2-yl)phenyl]sulfonyl}piperidin-4-yl)-2,4-dihydro-3H-pyrazol-3-one]",inhibition in vivo at 1 mg/kg,[1]; [2],15 to 53%
same,inhibition in vivo at 1 mg/kg,[1]; [3],22 to 60%
